Consider 8 compounds from PubChem BioAssay (NCI).

Test systems include ACHN renal; CAKI-1 renal; COLO 205 colon; EKVX NSCLC; M14 melanoma; MALME-3M melanoma; OVCAR-3 ovarian; SF-268 CNS; SF-295 CNS; SK-MEL-28 melanoma; SNB-19 CNS; SNB-75 CNS; U251 CNS; UACC-62 melanoma; XF 498 CNS; HCT-116 colon; HOP-62 NSCLC; OVCAR-5 ovarian; UACC-257 melanoma; RXF 393 renal.
What all share (experiment): growth of human tumour cells (NCI), 48 h

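The compound was tested at five concentrations on cells cultured in 96-well plates, with a 48-hour exposure period. TGI denotes the concentration required for complete inhibition of growth.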

Regarding `CCOc1ccc(C2=C(Cl)c3cc(OC)c(OC)cc3C2Cl)cc1` (centres undefined), the TGI with ACHN renal, in the assay on CAKI-1 renal, in the assay with COLO 205 colon, in the assay on EKVX NSCLC, with M14 melanoma and in the assay on MALME-3M melanoma was above 100 µM each time. Further, the TGI with OVCAR-3 ovarian, with SF-268 CNS, in the assay on SF-295 CNS, with SK-MEL-28 melanoma, with SNB-19 CNS and with SNB-75 CNS was above 100 µM each time. The TGI in the assay with U251 CNS is 39.8 µM; in the assay with UACC-62 melanoma, above 100 µM; in the assay on XF 498 CNS, 42.9 µM.

For `CCCCC(NC(=O)CC)C(=O)O` (centres undefined), the TGI in the assay with CAKI-1 renal, with COLO 205 colon, in the assay on EKVX NSCLC, in the assay on HCT-116 colon, with HOP-62 NSCLC and in the assay with MALME-3M melanoma was above 100 µM each time. Besides, the TGI with OVCAR-3 ovarian, with OVCAR-5 ovarian, with SF-268 CNS, in the assay on SF-295 CNS, with SK-MEL-28 melanoma and with SNB-19 CNS was above 100 µM throughout. Moreover, the TGI with SNB-75 CNS, in the assay with U251 CNS, with UACC-257 melanoma, in the assay with UACC-62 melanoma and in the assay with XF 498 CNS was above 100 µM each time.

As to `CC1=C2C(=O)C3[C@@H](CCC4=CC(=O)CC[C@@]43C)C2CC[C@]12O[C@@H]1C[C@H](C)CN[C@H]1[C@H]2C` (some centres undefined), the TGI is above 100 µM in the assay with ACHN renal; above 100 µM in the assay on CAKI-1 renal; above 100 µM with COLO 205 colon; above 100 µM with EKVX NSCLC; above 100 µM in the assay on HCT-116 colon; 68.2 µM in the assay on HOP-62 NSCLC. The TGI in the assay on M14 melanoma, in the assay with OVCAR-3 ovarian, with RXF 393 renal, with SF-268 CNS, with SF-295 CNS and in the assay on SK-MEL-28 melanoma was above 100 µM throughout. Further, the TGI in the assay with SNB-19 CNS was above 100 µM; in the assay on SNB-75 CNS, above 100 µM; with U251 CNS it was 51.5 µM; in the assay with UACC-257 melanoma, above 100 µM; in the assay with UACC-62 melanoma it was 61 µM; in the assay with XF 498 CNS, 94.4 µM.

As for `CC(C)=CCC[C@](C)(O)[C@H]1CC[C@]2(C)[C@@H]1[C@H](O)C[C@@H]1[C@@]3(C)CC[C@H](O[C@@H]4O[C@H](CO)[C@@H](O)[C@H](O)[C@H]4O)C(C)(C)[C@@H]3CC[C@]12C`, the TGI in the assay with ACHN renal was found to be 32.9 µM; with CAKI-1 renal, 34.2 µM; in the assay on COLO 205 colon, 37.3 µM; with EKVX NSCLC it was 39.4 µM; with HCT-116 colon, 41.2 µM; with HOP-62 NSCLC, 47.8 µM. Also, the TGI with M14 melanoma was 46 µM; in the assay on MALME-3M melanoma, 34.6 µM; with OVCAR-3 ovarian it was 32 µM; in the assay on OVCAR-5 ovarian, 49.3 µM; with RXF 393 renal, 32.2 µM; in the assay on SF-268 CNS it was 29.3 µM. The TGI in the assay on SF-295 CNS came to 39.6 µM; in the assay with SK-MEL-28 melanoma, 34.8 µM; with SNB-19 CNS, 35.4 µM; in the assay on SNB-75 CNS, 33.5 µM; in the assay with U251 CNS, 35.2 µM; with UACC-257 melanoma it was 41.1 µM. For the same compound, the TGI in the assay with UACC-62 melanoma amounted to 31 µM.

As for `Cc1[nH]c2ncn3ncnc3c2c1Cc1ccccc1`, the TGI in the assay on ACHN renal, in the assay on CAKI-1 renal, with COLO 205 colon, in the assay on EKVX NSCLC, in the assay on HCT-116 colon and in the assay with HOP-62 NSCLC was above 100 µM throughout. The TGI with M14 melanoma, in the assay on MALME-3M melanoma, in the assay on OVCAR-3 ovarian, in the assay with OVCAR-5 ovarian, in the assay with RXF 393 renal and in the assay on SF-268 CNS was above 100 µM each time. Moreover, the TGI in the assay on SF-295 CNS, in the assay with SK-MEL-28 melanoma, in the assay on SNB-19 CNS, with SNB-75 CNS, in the assay on U251 CNS and in the assay on UACC-257 melanoma was above 100 µM in each case. In the assay on UACC-62 melanoma, this compound displayed a TGI above 100 µM.

In the case of `Cc1ccc(C2(C)NC(=S)N(NC(N)=S)C2=S)cc1` (centres undefined), the TGI in the assay with ACHN renal, with COLO 205 colon, with EKVX NSCLC, with HCT-116 colon, in the assay with HOP-62 NSCLC and in the assay with M14 melanoma was above 100 µM each time. For the same compound, the TGI with MALME-3M melanoma, in the assay on OVCAR-3 ovarian, in the assay on RXF 393 renal, in the assay on SF-268 CNS, with SF-295 CNS and in the assay with SK-MEL-28 melanoma was above 100 µM throughout. For the same compound, the TGI with SNB-19 CNS, in the assay with SNB-75 CNS, with U251 CNS, in the assay on UACC-257 melanoma, in the assay on UACC-62 melanoma and in the assay with XF 498 CNS was above 100 µM in each case.

Turning to `CC(N)C(=O)c1ccc(O)cc1` (centres undefined), the TGI in the assay on ACHN renal, with CAKI-1 renal, in the assay on COLO 205 colon, in the assay on EKVX NSCLC, in the assay on HCT-116 colon and in the assay with HOP-62 NSCLC was above 100 µM throughout. In addition, the TGI with M14 melanoma, in the assay on MALME-3M melanoma, in the assay on OVCAR-3 ovarian, in the assay with OVCAR-5 ovarian, in the assay on RXF 393 renal and in the assay on SF-268 CNS was above 100 µM in each case. The TGI with SF-295 CNS, in the assay on SK-MEL-28 melanoma, in the assay with SNB-19 CNS, with SNB-75 CNS, in the assay with U251 CNS and in the assay with UACC-257 melanoma was above 100 µM throughout. This compound also returned a TGI in the assay with UACC-62 melanoma above 100 µM.

In the case of `COc1ccc(/C=C/C(=O)c2nc3ccccc3[nH]2)cc1`, the TGI with ACHN renal was 34.5 µM; with CAKI-1 renal, above 100 µM; with COLO 205 colon, 26 µM; with EKVX NSCLC it was 46 µM; in the assay on HCT-116 colon, 18.6 µM; with HOP-62 NSCLC it was above 88.1 µM. In addition, the TGI was above 59.1 µM with M14 melanoma; 61.7 µM with MALME-3M melanoma; 48.5 µM in the assay on OVCAR-3 ovarian; above 71.7 µM in the assay on OVCAR-5 ovarian; 35.3 µM in the assay with RXF 393 renal; above 64.5 µM in the assay with SF-268 CNS. Further, the TGI is above 84.8 µM in the assay with SF-295 CNS; 65.6 µM with SK-MEL-28 melanoma; 77.3 µM in the assay on SNB-19 CNS; 57.4 µM with SNB-75 CNS; 37.3 µM in the assay with U251 CNS; 52 µM in the assay on UACC-257 melanoma. Besides, the TGI in the assay with UACC-62 melanoma is 38.9 µM.
